# Measured values from PMC7619385 (ACS infectious diseases, 2025).
# Like-named read-outs stand apart in the source and are kept apart here.
# Molecular target: T1, LmxCLK1 (Leishmania mexicana, UniProt E9AMP2)
# T1 sequence (E9AMP2 1-422): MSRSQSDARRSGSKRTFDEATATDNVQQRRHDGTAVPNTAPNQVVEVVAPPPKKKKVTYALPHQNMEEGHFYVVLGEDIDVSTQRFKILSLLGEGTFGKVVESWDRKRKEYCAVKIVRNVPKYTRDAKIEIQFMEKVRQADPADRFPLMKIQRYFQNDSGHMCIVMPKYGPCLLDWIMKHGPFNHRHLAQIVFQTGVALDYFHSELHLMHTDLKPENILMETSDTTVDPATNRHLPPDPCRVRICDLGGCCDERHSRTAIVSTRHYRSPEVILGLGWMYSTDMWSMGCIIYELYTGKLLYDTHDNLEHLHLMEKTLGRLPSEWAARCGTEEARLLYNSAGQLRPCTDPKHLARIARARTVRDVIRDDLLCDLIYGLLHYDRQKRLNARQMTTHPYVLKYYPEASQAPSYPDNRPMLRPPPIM
# Assay: biochemical
# Type: binding
# [1] = DSF, 10 µM compound, 2 µM LmxCLK1, Run 1, read-out: ΔTm Run 1
# [2] = DSF, 10 µM compound, 2 µM LmxCLK1, Run 2, read-out: ΔTm Run 2
# [3] = DSF, 10 µM compound, 2 µM LmxCLK1, mean of two runs, read-out: ΔTm Average
# [4] = DSF, 10 µM compound, 2 µM LmxCLK1, Run 1
# [5] = DSF, 10 µM compound, 2 µM LmxCLK1, Run 2
# [6] = DSF, 10 µM compound, 2 µM LmxCLK1, mean of two runs
Structure (SMILES),ΔTm at 10 µM [1] [°C],ΔTm at 10 µM [2] [°C],ΔTm at 10 µM [3] [°C],ΔTm Run 1 [4] [°C],ΔTm Run 2 [5] [°C],ΔTm Average [6] [°C],further results
Cc1ncc(-c2ccnc(Nc3ccc(S(C)(=O)=O)cc3)n2)n1C(C)C [AZD5438],1.2,0.8,1,–,–,–,–
Cc1cc([C@@H](C)Nc2ccccc2C(=O)O)c2nc(N3CCOCC3)cc(=O)n2c1 [AZD6482],0.1,-0.1,0,–,–,–,–
NC(=O)Nc1cc(-c2cccc(F)c2)sc1C(=O)N[C@H]1CCCNC1 [AZD7762],3.5,3.1,3.3,–,–,–,–
COc1ccc(-c2ccc3c(N4CCOC[C@@H]4C)nc(N4CCOC[C@@H]4C)nc3n2)cc1CO [AZD8055],0.4,0.3,0.3,–,–,–,–
Cc1cc(C(=O)NOCCO)c(Nc2ccc(I)cc2F)n(C)c1=O [AZD8330],0.5,0.2,0.3,–,–,–,–
CNC(=O)CN1CCC(Oc2cc3c(Nc4cccc(Cl)c4F)ncnc3cc2OC)CC1 [AZD8931 (Sapitinib)],–,–,–,-0.1,-0.2,-0.1,–
C=CC(=O)Nc1cc(Nc2nccc(-c3cn(C)c4ccccc34)n2)c(OC)cc1N(C)CCN(C)C [AZD9291],0,-0.3,-0.2,–,–,–,–
NC(=O)c1ncn([C@@H]2O[C@H](CO)[C@@H](O)[C@H]2O)c1N [Acadesine],-0.2,-0.2,-0.2,–,–,–,–
CN(C)C/C=C/C(=O)Nc1cc2c(Nc3ccc(F)c(Cl)c3)ncnc2cc1O[C@H]1CCOC1 [Afatinib (BIBW2992)],0.1,-0.5,-0.2,–,–,–,–
COc1cc(Nc2ncc3c(n2)-c2ccc(Cl)cc2C(c2c(F)cccc2OC)=NC3)ccc1C(=O)O [Alisertib (MLN8237)],0.1,-0.3,-0.1,–,–,–,–
S=C(NCc1ccc2c(c1)OCO2)N1CCN(c2ncnc3c2oc2ccccc23)CC1 [Amuvatinib (MP-470)],–,–,–,0.1,0.0,0.1,–
CCN1CCN(C(=O)Cc2ccc(Nc3ncc(F)c(Nc4ccc(C(=O)Nc5ccccc5Cl)cc4)n3)cc2)CC1 [Aurora A Inhibitor I],–,–,–,0.0,-0.1,-0.1,–
CNC(=O)c1ccccc1Sc1ccc2c(/C=C/c3ccccn3)n[nH]c2c1 [Axitinib],0.6,0.4,0.5,–,–,–,–
COc1ccc(-c2ccc3ncc4c(c3c2)n(-c2ccc(N3CCNCC3)c(C(F)(F)F)c2)c(=O)n4C)cn1 [BGT226 (NVP-BGT226)],–,–,–,0.9,0.7,0.8,–
CC(C)CCN1c2nc(Nc3cc(F)c(O)c(F)c3)ncc2N(C)C(=O)C1C (stereo not drawn) [BI-D1870],–,–,–,0.4,0.0,0.2,–
Cc1ccc(-n2nc(C(C)(C)C)cc2NC(=O)Nc2ccc(OCCN3CCOCC3)c3ccccc23)cc1 [BIRB 796 (Doramapimod)],–,–,–,0.5,0.4,0.4,–
CN(C)Cc1cccc(N/C(=C2\C(=O)Nc3cc(C(=O)N(C)C)ccc32)c2ccccc2)c1 [BIX 02189],–,–,–,–,–,–,ΔTm Average: -0.3; ΔTm Run 1: -0.2; ΔTm Run 2: -0.4
Nc1cc(C(F)(F)F)c(-c2cc(N3CCOCC3)nc(N3CCOCC3)n2)cn1 [BKM120 (NVP-BKM120)],–,–,–,0.1,0.2,0.1,–
CCCCOc1c(C(=O)c2c(F)cc(C)cc2F)c[nH]c2nncc1-2 [BMS-265246],-0.1,-0.3,-0.2,–,–,–,–

Structure (SMILES),ΔTm at 10 µM [1] [°C],ΔTm at 10 µM [2] [°C],ΔTm at 10 µM [3] [°C],ΔTm Run 1 [4] [°C],ΔTm Run 2 [5] [°C],ΔTm Average [6] [°C],further results
Cc1cc(N2CCOCC2)cc2[nH]c(-c3c(NC[C@@H](O)c4cccc(Cl)c4)cc[nH]c3=O)nc12 [BMS-536924],–,–,–,0.2,0.1,0.1,–
CCOc1ccn(-c2ccc(F)cc2)c(=O)c1C(=O)Nc1ccc(Oc2ccnc(N)c2Cl)c(F)c1 [BMS-777607],0.5,-0.2,0.2,–,–,–,–
Nc1nccc(Oc2ccc(NC(=O)c3c[nH]cc(-c4ccc(F)cc4)c3=O)cc2F)c1Cl [BMS-794833],-0.1,-0.4,-0.3,–,–,–,–
CC(C)c1cnn2c(NCc3ccccc3)cc(NCCCCCCN)nc12.Cl [BS-181 HCl],–,–,–,-0.3,-0.2,-0.3,–
O=C(NCCCNc1nc(Nc2cccc(NC(=O)N3CCCC3)c2)ncc1I)c1cccs1 [BX-795],-0.1,0.4,0.2,–,–,–,–
O=C(Nc1cccc(Nc2ncc(Br)c(NCCc3cnc[nH]3)n2)c1)N1CCCC1 [BX-912],–,–,–,0.2,0.2,0.2,–
Cc1nc(NC(=O)N2CCC[C@H]2C(N)=O)sc1-c1ccnc(C(C)(C)C(F)(F)F)c1 [BYL719],0.1,0.2,0.2,–,–,–,–
CCN(CCO)CCCOc1ccc2c(Nc3cc(CC(=O)Nc4cccc(F)c4)[nH]n3)ncnc2c1 [Barasertib (AZD1152-HQPA)],–,–,–,0.4,-0.1,0.1,–
COC(=O)[C@]12CCC(C)(C)C[C@H]1[C@H]1C(=O)C=C3[C@@]4(C)C=C(C#N)C(=O)C(C)(C)[C@@H]4CC[C@@]3(C)[C@]1(C)CC2 [Bardoxolone Methyl],0.6,0.5,0.5,–,–,–,–
Cc1cc2c(F)c(Oc3ncnn4cc(OC[C@@H](C)OC(=O)[C@H](C)N)c(C)c34)ccc2[nH]1 [Brivanib Alaninate (BMS-582664)],–,–,–,0.3,0.1,0.2,–
NC1(Cc2ccc(Cl)cc2)CCN(c2ncnc3[nH]ccc23)CC1 [CCT128930],–,–,–,0.8,0.6,0.7,–
CN(C)c1ccc(-c2nc3ncc(Cl)c(N4CCN(CC(=O)Nc5nccs5)CC4)c3[nH]2)cc1 [CCT129202],–,–,–,-0.1,0.0,0.0,–
Cc1cc(CN2CCN(c3c(Br)cnc4nc(-c5ccc(N6CCN(C)CC6)cc5)[nH]c34)CC2)no1 [CCT137690],–,–,–,0.3,0.4,0.3,–
CN1CCN(c2cccc(Nc3nc4c(-c5ccc(S(C)(=O)=O)cc5)cccn4n3)c2)CC1 [CEP-33779],–,–,–,0.5,0.5,0.5,–
Cc1c(NC(=O)c2ccc(C(C)(C)C)cc2)cccc1-c1cn(C)c(=O)c(Nc2ccc(C(=O)N3CCOCC3)cc2)n1 [CGI1746],0,-0.4,-0.2,–,–,–,–
O=C(NC(NC(=S)Nc1ccc(F)c([N+](=O)[O-])c1)C(Cl)(Cl)Cl)C(c1ccccc1)c1ccccc1 (stereo not drawn) [CGK 733],–,–,–,-0.6,0.0,-0.3,–
CS(=O)(=O)N1CCc2c(-c3cnc(N)nc3)nc(N3CCOCC3)nc21 [CH5132799],0.4,0.1,0.2,–,–,–,–
O=c1[nH]c2ccc(Cl)cc2c(N[C@@H]2CN3CCC2CC3)c1-c1nc2ccccc2[nH]1 [CHIR-124],–,–,–,0.3,0.0,0.2,–
Cc1cnc(-c2cnc(NCCNc3ccc(C#N)cn3)nc2-c2ccc(Cl)cc2Cl)[nH]1.Cl [CHIR-99021 (CT99021) HCl],–,–,–,0.0,0.0,0.0,–
